Like-named read-outs stand apart in the source and are kept apart here.
What was measured:
HepG2 = assay: Antiproliferative activity, SRB assay; assay type: cell-based, human; conditions: Homo sapiens, HepG2
Method: (§1) The synthesized compounds were first evaluated for their cytotoxic effect on MCF-7 (human breast adenocarcinoma), U937 (histiocytic lymphoma cancer), HepG2 (human liver cancer) cells, and MGC-803 (human gastric cancer) using the SRB and CCK-8 assay. As reference compounds CA-4 and colchicine were included.
(§2) The primary tumor cells were purchased from a professional biomedical company. First, the primary tumor cells were incubated in a cell culture incubator at 37°C and 5% CO2. After the cell fusion reached 85%–95%, subculture was performed, and the tumor cells obtained at this time were used for subsequent related experiments. The CCK-8 method was used to inhibit the proliferation of U937 tumor cells, and the SRB method was used to inhibit the proliferation of MCF7 and HepG2 tumor cells.
Cells were distributed into 96-well plates with a density of 3 × 10^3–4 × 10^3 cells per well and incubated for 24 h in a 5% CO2 incubator at 37°C, followed by treatment with study compounds at different concentrations at 37°C for 72 h. One hundred microliters of 10% (w/v) trichloroacetic acid was added to each well, fixed at 4°C for 30 min, and dried at 65°C. Then 100 μl of 0.4% SRB was added to each well and stained on a shaker for 20 min at room temperature. The excess dye solution was washed with newly prepared 1% glacial acetic acid and dried at 65°C. One hundred fifty microliters of 10 mM unbuffered Trisbase was added to each well of the plate and shaken for 5 min to dissolve the dye. The microplate reader measured the optical density (OD) at a wavelength of 560 nm.

MCF-7 = assay: Antiproliferative activity, SRB assay; assay type: cell-based, human; conditions: Homo sapiens;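 further: proliferation of MCF7 cells quantified by sulforhodamine B staining, with optical density read at 560 nm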
U937 = assay: Antiproliferative activity, CCK-8 assay; assay type: cell-based; conditions: Homo sapiens, U-937
Method: as §1, §2
The cells in the logarithmic growth phase were seeded in a 96-well plate at 8,000/well, and the drug-containing medium and cell suspension were added to the well. Three wells were added with the blank medium as the blank group. The 96-well plate was incubated for 72 h in a 37°C, 5% CO2 incubator. The 10 μl of CCK-8 dye solution was added to each well, and the incubation continued for 3–4 h.

[1] = 72 h, triplicate, mean ± SD, read-out: IC50 ± SD, HepG2
[2] = MCF7, 72 h, 72 h, triplicate, mean ± SD, read-out: IC50 ± SD, MCF-7
[3] = 72 h, triplicate, mean ± SD, read-out: IC50 ± SD, U937
[4] = supplement raw data of table 2, read-out: IC50(Hepg2)
[5] = MCF7, supplement raw data of table 2, read-out: IC50(MCF-7)
[6] = supplement raw data of table 2, read-out: IC50(U937)

SMILES | melting point | IC50 (HepG2; [1]) | IC50 (MCF-7; [2]) | IC50 (U937; [3]) | IC50 (HepG2; [4]) | IC50 (MCF-7; [5]) | IC50 (U937; [6])
COC(=O)c1ccc2c(/C=C(\C)C(=O)c3cc(OC)c(OC)c(OC)c3)c[nH]c2c1 [Compound 7f, methyl(E)-3-(2-methyl-3-oxo-3-(3,4,5-trimethoxyphenyl)prop-1-en-1-yl)-1H-indole-6-carboxylate] | 229.3 to 231.7 °C | 193 ± 1 nM | 13700 ± 965 nM | 1620 ± 190 nM | – | – | –
COc1cc(C(=O)/C(C)=C/c2cc3ccccc3s2)cc(OC)c1OC [Compound 7o, (E)-3-(benzo[b]thiophen-2-yl)-2-methyl-1-(3,4,5-trimethoxyphenyl)prop-2-en-1-one] | 81.4 to 83.2 °C | 116 ± 1 nM | 187 ± 3 nM | 166 ± 3 nM | 116 nM | 187 nM | 166 nM
COC(=O)c1ccc2[nH]cc(/C=C(\C)C(=O)c3cc(OC)c(OC)c(OC)c3)c2c1 [Compound 7e, methyl(E)-3-(2-methyl-3-oxo-3-(3,4,5-trimethoxyphenyl)prop-1-en-1-yl)-1H-indole-5-carboxylate] | 210.4 to 213.7 °C | > 20000 nM | > 20000 nM | > 20000 nM | – | – | –
COc1cc(C(=O)/C(C)=C/c2ccc3c(c2)CCO3)cc(OC)c1OC [Compound 7n, (E)-3-(2,3-dihydrobenzofuran-5-yl)-2-methyl-1-(3,4,5-trimethoxyphenyl)prop-2-en-1-one] | – | 2 ± 0.1 nM | 20 ± 2 nM | 11 ± 2 nM | 2.21 nM | 19.5 nM | 10.8 nM
COc1cc(C(=O)/C(C)=C/c2oc3ccccc3c2C)cc(OC)c1OC [Compound 7i, (E)-2-methyl-3-(3-methylbenzofuran-2-yl)-1-(3,4,5-trimethoxyphenyl)prop-2-en-1-one] | 113.2 to 115.1 °C | 879 ± 7 nM | 1410 ± 21 nM | 1180 ± 37 nM | 879 nM | – | –
COc1cc(C(=O)/C(C)=C/c2c(C)[nH]c3ccccc23)cc(OC)c1OC [Compound 7b, (E)-2-methyl-3-(2-methyl-1H-indol-3-yl)-1-(3,4,5-trimethoxyphenyl)prop-2-en-1-one] | 152.7 to 153.2 °C | 10800 ± 629 nM | 584 ± 16 nM | 3080 ± 433 nM | – | 584 nM | –

Next, values leading:

melting point | IC50 (HepG2; [1]) | IC50 (MCF-7; [2]) | IC50 (U937; [3]) | IC50 (HepG2; [4]) | IC50 (MCF-7; [5]) | IC50 (U937; [6]) | SMILES
266.5 to 268.2 °C | 1430 ± 49 nM | 2161 ± 9 nM | 2510 ± 29 nM | – | – | – | COc1cc(C(=O)/C(C#N)=C/c2c[nH]c3cc(Br)ccc23)cc(OC)c1OC [Compound 8g, (E)-3-(6-bromo-1H-indol-3-yl)-2-(3,4,5-trimethoxybenzoyl)acrylonitrile]
207.1 to 209 °C | > 20000 nM | > 20000 nM | > 20000 nM | – | – | – | COc1cc(C(=O)/C(C#N)=C/c2cc3c(cc2Br)OCO3)cc(OC)c1OC [Compound 8t, (E)-3-[6-bromobenzo(d)(1,3)dioxol-5-yl]-2-(3,4,5-trimethoxybenzoyl)acrylonitrile]
187.5 to 189.3 °C | 1701 ± 13 nM | 14740 ± 141 nM | > 20000 nM | – | – | – | COc1cc(C(=O)/C(C#N)=C/c2cc3ccccc3s2)cc(OC)c1OC [Compound 8o, (E)-3-[benzo(b)thiophen-2-yl]-2-(3,4,5-trimethoxybenzoyl)acrylonitrile]
160.1 to 163.8 °C | 18740 ± 35 nM | 16430 ± 42 nM | 14310 ± 127 nM | 18700 nM | – | 14300 nM | COc1cc(C(=O)/C(C#N)=C/c2cc3c(cc2[N+](=O)[O-])OCO3)cc(OC)c1OC [Compound 8k, (E)-3-[6-nitrobenzo(d)(1,3)dioxol-5-yl]-2-(3,4,5-trimethoxybenzoyl)acrylonitrile]
201.8 to 203.1 °C | > 20000 nM | > 20000 nM | > 20000 nM | – | – | – | COc1cc(C(=O)/C(C#N)=C/c2csc3ccccc23)cc(OC)c1OC [Compound 8p, (E)-3-[benzo(b)thiophen-3-yl]-2-(3,4,5-trimethoxybenzoyl)acrylonitrile]
136.7 to 138.5 °C | > 20000 nM | > 20000 nM | > 20000 nM | – | – | – | COc1cc(C(=O)/C(C#N)=C/c2oc3ccccc3c2C)cc(OC)c1OC [Compound 8i, (E)-3-(3-methylbenzofuran-2-yl)-2-(3,4,5-trimethoxybenzoyl)acrylonitrile]
224.2 to 229.3 °C | 938 ± 8 nM | 934 ± 23 nM | 140 ± 41 nM | 938 nM | 940 nM | 140 nM | COc1cc(C(=O)/C(C#N)=C/c2c[nH]c3ccccc23)cc(OC)c1OC [Compound 8a, (E)-3-(1H-indol-3-yl)-2-(3,4,5-trimethoxybenzoyl)acrylonitrile]
> 260 °C | > 20000 nM | > 20000 nM | > 20000 nM | – | – | – | COC(=O)c1ccc2[nH]cc(/C=C(\C#N)C(=O)c3cc(OC)c(OC)c(OC)c3)c2c1 [Compound 8e, methyl(E)-3-(2-cyano-3-oxo-3-(3,4,5-trimethoxyphenyl)prop-1-en-1-yl)-1H-indole-5-carboxylate]
181.3 to 182.6 °C | > 20000 nM | > 20000 nM | > 20000 nM | – | – | – | COc1cc(C(=O)/C(C#N)=C/c2ccc3oc4ccccc4c3c2)cc(OC)c1OC [Compound 8l, (E)-3-[dibenzo (b,d)furan-2-yl]-2-(3,4,5-trimethoxybenzoyl)acrylonitrile]
216.5 to 218.2 °C | > 20000 nM | > 20000 nM | > 20000 nM | – | – | – | COc1cc(C(=O)/C(C#N)=C/c2c(C)[nH]c3ccccc23)cc(OC)c1OC [Compound 8b, (E)-3-(2-methyl-1H-indol-3-yl)-2-(3,4,5-trimethoxybenzoyl)acrylonitrile]
176.3 to 177.8 °C | > 20000 nM | > 20000 nM | > 20000 nM | – | – | – | COc1cc(C(=O)/C(C#N)=C/c2cccc3c2OCO3)cc(OC)c1OC [Compound 8s, (E)-3-[benzo(d)(1,3)dioxol-4-yl]-2-(3,4,5-trimethoxybenzoyl)acrylonitrile]
201.8 to 203.1 °C | > 20000 nM | > 20000 nM | 24900 ± 2020 nM | – | – | 24900 nM | COc1cc(C(=O)/C(C#N)=C/c2nc3ccccc3n2C)cc(OC)c1OC [Compound 8r, (E)-3-[1-methyl-1H-benzo (d)imidazol-2-yl]-2-(3,4,5-trimethoxybenzoyl)acrylonitrile]
176.7 to 178.2 °C | > 20000 nM | > 20000 nM | 8580 ± 178 nM | – | – | – | COC(=O)c1cccc2[nH]cc(/C=C(\C#N)C(=O)c3cc(OC)c(OC)c(OC)c3)c12 [Compound 8d, methyl(E)-3-(2-cyano-3-oxo-3-(3,4,5-trimethoxyphenyl)prop-1-en-1-yl)-1H-indole-4-carboxylate]
– | > 20000 nM | > 20000 nM | 9250 ± 141 nM | – | – | – | COc1cc(C(=O)/C(C#N)=C/c2ccc3c(c2)CCO3)cc(OC)c1OC [Compound 8n, (E)-3-(2,3-dihydrobenzofuran-5-yl)-2-(3,4,5-trimethoxybenzoyl)acrylonitrile]

Reference: article PMC8652888, “Angiogenesis, Anti-Tumor, and Anti-Metastatic Activity of Novel α-Substituted Hetero-Aromatic Chalcone Hybrids as Inhibitors of Microtubule Polymerization” (Frontiers in Chemistry, 2021)
